Reference: patent US20250223306A1, “TEAD INHIBITORS AND METHODS OF USE” (Sporos BioDiscovery, Inc., priority 2022, published 2025)

How the values were obtained:
NCI-H226 cells = test: Proliferation and cell viability, CellTiter-Glo 2.0 (CTG) assay; format: cell-based; settings: for EC50: NCI-H226, H226-responder cell line (Table 5); for IC50: H226-responder cell line, 144 hrs
Experimental: Cell proliferation of a TEAD dependent NF2-null mesothelioma cell line, NCI-H226, and a TEAD-non-dependent mesothelioma cell line, NCI-H28 was assayed using two different protocols: • a) CellTiter-Glo 2.0 (Promega #G9243). The effect of the TEAD inhibitors disclosed herein on cell proliferation was determined in TEAD1-genetically dependent cell line NCI-H226 (responder cell line) and TEAD-independent cell lines (NCI-H23, HEK293T), as non-responder, negative control. Cells were seeded in 96-well plates (Thermo Scientific #167008) in growth media (RPMI-1640, Gibco #61870-010) for NCI-H226 and NCI-H23 or DMEM (Gibco #31966-021, HEK293T) with 10% Heat Inactivated Fetal Bovine Serum (Gibco 10500-064) at 800 (NCI-H226 and HEK-293T) or 2000 (NCI-H23) cells per well at 37° C., 5% CO2, humidified incubator; 24 hours later, fresh growth media containing test compound or DMSO vehicle was added and incubated with the cells for 144 hrs. TEAD inhibitor stocks were made at a 1000× fold excess in DMSO, and a dose response test compound dose range of 10,000 to 0.1 nM was used. Each treatment was carried out in triplicate. After 144 hrs of treatment, relative cell viability numbers were determined using the CellTiter-Glo 2.0 assay following the manufacturer's instructions. Test plates and CellTiter-Glo 2.0 reagent were allowed to equilibrate to room temperature. CellTiter-Glo 2.0 reagent was added at 1:1 reagent to media ratio to the 96-well cell plates, plates were placed on a plate shaker for 2 minutes and then incubated at room temperature for a further 10 minutes to allow complete cell lysis to occur. The mix was then transferred to white, 96-well luminometer assay plates (Greiner Bio One #655075). Luminescence was quantified using a CLARIOStar Plus multi-mode plate reader (BMG Labtech) in luminescence detection mode with the recommended settings (ultra-Glo pre-set: emission 545-50 nm with autofocus and enhanced dynamic range on). Relative cell density was expressed as a function of inhibitor concentration, with respect to DMSO-only control wells. Data where plotted using GraphPad Prism and IC50 values for the biological effect were calculated using the EC50 non-linear fit function using a sigmoidal, 4-parameter logistic, least squares fit with no constraints. • b) Cell Titer One (Promega, #G3582). The effect of the TEAD inhibitors disclosed herein on cell proliferation was also determined using the Promega Substrate Cell Titer Aqueous One Solution Reagent. The TEAD inhibitors were evaluated for the effects on cell proliferation responder (H226) and non-responder negative control cancer cell lines (CAMA1, H28), as well as non-transformed normal human cells (HUVEC, NHDF). Dissociated cells were resuspend in media (depending on cell line, either in DMEM, RPMI, or EMEM all with 10% FBS, with gentamicin as an antibiotic). Cells were seeded at 100 μL/well at 750 cells per well in 96-well plates and allowed to settle and attach. After an incubation of 24 hrs (37° C., 5% CO2, humidified incubator), 100 μL of test compound-containing media was added. A dilution series of 2000× concentrated stock of test compounds was prepared in DMSO, for final concentrations from 0.1 to 10,000 nM. After addition of test compound-containing media, cells were incubated for 6 days at 37° C., 5% CO2, humidified incubators). To measure cell density, 20 μL of Promega Substrate Cell Titer 96 Aqueous One Solution Reagent (Promega, #G3582) to each well was added according to the manufacturer's instructions. Plates were incubated at 37° C. for usually 3-8 hrs, to reach in the control cells (without compound) an OD of 1.5 at 490 nm. The OD was measured using Vmax [Molecular Devices] spectrophotometer plate reader. Media only-wells were used as background controls and cell densities normalized to DMSO vehicle control. ECs were taken as the concentration achieving 50% of maximal growth inhibition.

Mero14 cells = test: Mero14 proliferation and cell viability assay (CTG); format: cell-based; settings: Mero14 cell line, 144 hours
Experimental: Mero14 cells were trypsinised, counted and plated at 400 cells/well in 200 μl of growth media in 96 well flat bottom tissue culture treated plates. The plated cells were incubated overnight at 37° C., 5% CO2 before being treated with compounds in triplicate for each assay point. 50 μl of the serially diluted compound was added to each well giving a final DMSO concentration of 0.5% per well and a total volume of 250 μl per well. The treated cells were incubated for 144 hours (6 days) at 37° C., 5% CO2. Following compound treatment the remaining viable cells were detected using the Promega CellTiter-Glo 2.0 assay as follows: 150 μl of media was removed from each of the wells to be assayed and 100 μl of room temperature CellTiter-Glo 2.0 reagent was added. The plate was placed on an orbital shaker at 500 rpm at room temperature for 2 minutes, and then incubated without shaking for a further 10 minutes at room temperature. 150 μl of cell lysate was removed from each well and dispensed into a single well of a white opaque 96 well plate.
Luminescence at 545 nm was read using a BMG CLARIOstar plate reader. The luminescent signal was directly proportional to number of viable cells, the percent of viable cells relative to the DMSO control was then calculated for each assay point. Percent viability relative to DMSO control is plotted against compound concentration and a curve fitted with non-linear regression in GraphPad Prism software. IC50 values were calculated using GraphPad Prism software as follows: For Relative IC50 values, a non-constrained four-parameter logistic curve fit was used (Sigmoidal, 4PL, X is concentration). For Absolute IC50 values the baseline was constrained to Y=0 (Absolute IC50, X is concentration). Area Under the Curve (AUC): Prism computed area-under-the-curve by the trapezoidal method. The analysis sees a fitted curve as simply a series of connected XY points. Prism simply computes the area under the “curve” defined by connecting the points by straight lines. The units of the AUC are the units of the Y axis times units of the X axis.

Structure (SMILES)	EC50 (NCI-H226 cells; Homo sapiens)	IC50 (NCI-H226 cells; Homo sapiens, NCI-H226, 144 h)	IC50 (NCI-H226 cells)	EC50 (Mero14 cells)
COc1cc(C2=CCC(C(F)(F)F)CC2)c2ncc(C(=O)N[C@H](C)CO)cc2c1 (stereo partly drawn) [Compound 110, N—((R)-1-hydroxypropan-2-yl)-6-methoxy-8-(4-(trifluoromethyl)cyclohex-1-en-1-yl)quinoline-3-carboxamide]	< 200 nM			< 200 nM
C[C@@H](NC(=O)c1cnc2c(C3=CCC4(CC3)CC4)cccc2c1)c1ncco1 [Compound 166, (R)—N-(1-(oxazol-2-yl)ethyl)-8-(spiro[2.5]oct-5-en-6-yl)quinoline-3-carboxamide]	< 200 nM			< 200 nM
C[C@H](CO)NC(=O)c1cnc2c(C3=CCC4(CC3)CC(F)(F)C4)cccc2c1 [Compound 165, (R)-8-(2,2-difluorospiro[3.5]non-6-en-7-yl)-N-(1-hydroxypropan-2-yl)quinoline-3-carboxamide]	< 200 nM			< 200 nM
FC(F)(F)c1ccc(CN2CCC(C3CC(Br)=NO3)CC2)cc1 (stereo not drawn) [Compound 1-2, reference compound]	< 200 nM			200 to 1000 nM
COc1cc(C2=CCC(C(F)(F)F)CC2)c2ncc(C(=O)N[C@H](C)c3ncco3)cc2c1 (stereo partly drawn) [Compound 109, 6-methoxy-N—((R)-1-(oxazol-2-yl)ethyl)-8-(4-(trifluoromethyl)cyclohex-1-en-1-yl)quinoline-3-carboxamide]	< 200 nM			< 200 nM
C=CC(=O)Nc1ccc(C)c(Oc2ccc(Cl)cc2)c1 [Compound 1-3, reference compound]	< 200 nM			< 200 nM

Second part, led by results:

EC50 (NCI-H226 cells; Homo sapiens)	IC50 (NCI-H226 cells; Homo sapiens, NCI-H226, 144 h)	IC50 (NCI-H226 cells)	Structure (SMILES)	EC50 (Mero14 cells)
< 200 nM			COC[C@H](CO)NC(=O)c1cnc2c(C3=CCC(C(F)(F)F)CC3)cccc2c1 (stereo partly drawn) [Compound 62, N—((S)-1-hydroxy-3-methoxypropan-2-yl)-8-(4-(trifluoromethyl)cyclohex-1-en-1-yl)quinoline-3-carboxamide]	< 200 nM
< 200 nM	< 200 nM		O=C(NCc1ncco1)c1cnc2c(C3=CCC(C(F)(F)F)CC3)cccc2c1 (stereo not drawn) [Compound 11, N-(oxazol-2-ylmethyl)-8-(4-(trifluoromethyl)cyclohex-1-en-1-yl)quinoline-3-carboxamide]	< 200 nM
		< 200 nM	C[C@H](NC(=O)c1cnc2c(C3=CC[C@@H](C(F)(F)F)CC3)cccc2c1)c1ncco1 (single isomer, unassigned) [Compound 20, N-(1-(oxazol-2-yl)ethyl)-8-(4-(trifluoromethyl)cyclohex-1-en-1-yl)quinoline-3-carboxamide]	
	< 200 nM		C[C@H](NC(=O)c1cnc2c(C3=CCC(C(F)(F)F)CC3)cccc2c1)c1ccccn1 (stereo partly drawn) [Compound 2, N—((S)-1-(pyridin-2-yl)ethyl)-8-(4-(trifluoromethyl)cyclohex-1-en-1-yl)quinoline-3-carboxamide]	
< 200 nM			O=C(NCc1ccn[nH]1)c1cnc2c(C3=CCC(C(F)(F)F)CC3)cccc2c1 (stereo not drawn) [Compound 47, N-((1H-pyrazol-5-yl)methyl)-8-(4-(trifluoromethyl)cyclohex-1-en-1-yl)quinoline-3-carboxamide]	< 200 nM
< 200 nM	< 200 nM		C[C@H](NC(=O)c1cnc2c(C3=CC[C@@H](C(F)(F)F)CC3)cccc2c1)c1ncco1 (single isomer, unassigned) [Compound 19, N-(1-(oxazol-2-yl)ethyl)-8-(4-(trifluoromethyl)cyclohex-1-en-1-yl)quinoline-3-carboxamide]	< 200 nM
< 200 nM	< 200 nM		C[C@H](CO)NC(=O)c1cnc2c(C3=CCC(C(F)(F)F)CC3)cccc2c1 (stereo partly drawn) [Compound 7, N—((R)-1-hydroxypropan-2-yl)-8-(4-(trifluoromethyl)cyclohex-1-en-1-yl)quinoline-3-carboxamide]	< 200 nM
